Experimental findings from patent publication US7855309B2, “Pesticide benzyloxy- and phenetyl-substituted phenyl-amidine derivatives” (Bayer CropScience AG, priority 2005, dated 2010) are described below.

The nature of data set [1]: logP by HPLC on reversed-phase column (EEC Directive 79/831 Annex V.A8). The data set is classed as physicochemical. The settings on record: for log P: HPLC, C18, 40° C., 0.1% aqueous formic acid and acetonitrile. As to the method:
Temperature: 40° C.; Mobile phases: 0.1% aqueous formic acid and acetonitrile; linear gradient from 10% acetonitrile to 90% acetonitrile.
Calibration was carried out using unbranched alkan-2-ones (comprising 3 to 16 carbon atoms) with known logP values (determination of the logP values by the retention times using linear interpolation between two successive alkanones).

In the next data set the test system is Myzus persicae. In words: In vivo protective test on Myzus persicae (MYZUPE). The settings on record: Chinese cabbage leaf-disks, all instars, spray. As to the method:
In Vivo Protective Test on Myzus persicae (MYZUPE)
Solvent: 78 parts by weight acetone
• 1.5 parts by weight dimethylformamide Dye: 0.5 parts by weight alkylarylpolyglcolether
To produce a suitable preparation of active compound, 1 part by weight of active compound is mixed with the stated amount of solvent and emulsifier, and the concentrate is diluted with emulsifier-containing water to the desired concentration.
Chinese cabbage (Brassica pekinesis) leaf-disks infected with all instars of the green peach aphid (Myzus persicae), are sprayed with a preparation of the active ingredient at the desired concentration.
After the specified period of time, mortality in % is determined. 100% means that all aphids have been killed; 0% means that none of the aphids have been killed.

Turning to `CCN(C)C=Nc1cc(C)c(OCc2ccccc2OC(F)(F)F)cc1C` [Compound 16], the “log P” value in data set [1] amounted to 2.28. For the same compound, the “activity (mortality)” value in the data set on Myzus persicae is listed as “good activity”.
With `CCN(C)C=Nc1cc(C)c(OCc2cc(Cl)cc(C(F)(F)F)c2)cc1C` [Compound 19], in data set [1], the “log P” value is listed as 2.54. For the same compound, the “activity (mortality)” value in the data set with Myzus persicae is listed as “good activity”.
Take `CCN(C)C=Nc1cc(C)c(OCc2cc(C(F)(F)F)ccc2Cl)cc1C` [Compound 20]: the “log P” value in data set [1] was found to be 2.44. For the same compound, the “activity (mortality)” value with Myzus persicae is listed as “good activity”.
`CCN(C)C=Nc1cc(C)c(OCc2ccc(C(F)(F)F)cc2Cl)cc1C` [Compound 25]: in data set [1], the “log P” value is 2.47. Besides, the “activity (mortality)” value in the data set with Myzus persicae is “good activity”.
In the case of `CCN(C)C=Nc1cc(C)c(OC(C)c2cccc(Cl)c2)cc1C` (stereo not shown) [Compound 30], the “log P” value in data set [1] is 2.23. In addition, the “activity (mortality)” value in the data set with Myzus persicae was “good activity”.
The matching figures for `CCN(C)C=Nc1cc(C)c(OC(C)c2ccc(Cl)cc2)cc1C` (stereo not shown) [Compound 31]: 2.26 and “good activity”.
As for `CCN(C)C=Nc1cc(C)c(CCc2cc(C(F)(F)F)cc(C(F)(F)F)c2)cc1C` [Compound 35], in data set [1], the “log P” value was 2.79. Besides, the “activity (mortality)” value in the data set on Myzus persicae was “good activity”.
Regarding `CCN(C)C=Nc1cc(C)c(OCc2cccc(OCC(F)(F)F)c2)cc1C` [Compound 49], the “log P” value in data set [1] is 2.21. The “activity (mortality)” value in the data set on Myzus persicae is on record as “good activity”.
Turning to `CCN(C)C=Nc1cc(C)c(OCc2ccc(Oc3ccc(F)cc3)cc2)cc1C` [Compound 52], in data set [1], the “log P” value turned out to be 2.8. Besides, in the data set on Myzus persicae, the “activity (mortality)” value is on record as “good activity”.
Regarding `CCN(C)C=Nc1cc(C)c(OCc2cc(C)ccc2C)cc1C` [Compound 56], the log partition coefficient (log P) in data set [1] is listed as 2.23. Moreover, in the data set with Myzus persicae, the “activity (mortality)” value is reported as “good activity”.
Regarding `CCN(C)C=Nc1cc(C)c(OCc2c(F)cccc2Cl)cc1C` [Compound 61], the “log P” value in data set [1] is listed as 2.09. In addition, in the data set with Myzus persicae, the “activity (mortality)” value is on record as “good activity”.
For the compound `CCN(C)C=Nc1cc(C)c(OCc2ccc(C)c(C)c2)cc1C` [Compound 64], the “log P” value in data set [1] amounted to 2.23. Also, the “activity (mortality)” value in the data set on Myzus persicae is reported as “good activity”.
As to `CCN(C)C=Nc1cc(C)c(OCc2cccc(Br)c2)cc1C` [Compound 65], the “log P” value in data set [1] was found to be 2.18. In the data set with Myzus persicae, the “activity (mortality)” value is “good activity”.
The matching figures for `CCN(C)C=Nc1cc(C)c(OCc2ccccc2SC(F)(F)F)cc1C` [Compound 68]: 2.36 and “good activity”.
For the compound `CCN(C)C=Nc1cc(C)c(OCc2cccc(SC(F)(F)F)c2)cc1C` [Compound 69], in data set [1], the “log P” value was determined as 2.45. The “activity (mortality)” value in the data set on Myzus persicae is given as “good activity”.
Regarding `CCN(C)C=Nc1cc(C)c(OCc2ccc(Oc3ccc(SC)cc3)cc2)cc1C` [Compound 72], in data set [1], the “log P” value stood at 2.74. Besides, the “activity (mortality)” value with Myzus persicae is “good activity”.
As for `CCN(C)C=Nc1cc(C)c(OCc2ccc(Oc3ccc(Cl)cc3)cc2)cc1C` [Compound 73], the “log P” value in data set [1] came to 2.8. The “activity (mortality)” value in the data set with Myzus persicae is on record as “good activity”.
As for `CCN(C)C=Nc1cc(C)c(OCc2cccc(OC)c2)cc1C` [Compound 81], the “log P” value in data set [1] was 1.97.
Take `CCN(C)C=Nc1cc(C)c(OCc2ccc(C(C)C)cc2)cc1C` [Compound 82]: the “log P” value in data set [1] came to 2.51.
For the compound `CCN(C)C=Nc1cc(C)c(OCc2ccc(SC(F)(F)F)cc2)cc1C` [Compound 83], the “log P” value in data set [1] is listed as 2.61. This log P and that of the compound before are within 0.2 log units of each other.
Still for that read-out and setting: for `CCN(C)C=Nc1cc(C)c(OCc2ccc(SC)cc2)cc1C` [Compound 84] the value was 2.16; for `CCN(C)C=Nc1cc(C)c(OCc2cccc(I)c2)cc1C` [Compound 85], 2.42.
On the same count and under the same terms, the result for `CCN(C)C=Nc1cc(C)c(OCc2c(C)cc(C)cc2C)cc1C` [Compound 86] reads 2.42; that for `CCN(C)C=Nc1cc(C)c(OCc2ccccc2I)cc1C` [Compound 87], 2.29; that for `CCN(C)C=Nc1cc(C)c(OCc2cccc(C)c2C)cc1C` [Compound 89], 2.29.
As to `Cc1cc(OCc2cc(Cl)cc(Cl)c2)c(C)cc1N=CN1CCCCC1` [Compound 90], in data set [1], the “log P” value was determined as 2.51.
On the same count and under the same terms, the result for `Cc1ccc(C)c(COc2cc(C)c(N=CN3CCCCC3)cc2C)c1` [Compound 91] reads 2.33.
With `Cc1cc(OCc2cc3c(cc2Cl)OCO3)c(C)cc1N=CN1CCCCC1` [Compound 92], in data set [1], the “log P” value stood at 2.16.
In the case of `Cc1cc(OCc2cccc(Cl)c2)c(C)cc1N=CN1CCCCC1` [Compound 94], in data set [1], the “log P” value is 2.21.
For the compound `Cc1cc(OCc2ccc(C(C)(C)C)cc2)c(C)cc1N=CN1CCCCC1` [Compound 95], the “log P” value in data set [1] worked out at 2.64.
On the same count and under the same terms, the result for `Cc1cc(OCc2cccc(C(F)(F)F)c2)c(C)cc1N=CN1CCCCC1` [Compound 96] reads 2.29.
Consider `Cc1cc(OCc2cc(F)ccc2F)c(C)cc1N=CN1CCCCC1` [Compound 97], for which, in data set [1], the “log P” value is 2.09.
Consider `Cc1cc(OCc2ccc(C#N)cc2)c(C)cc1N=CN1CCCCC1` [Compound 98], for which the “log P” value in data set [1] amounted to 1.94.
Take `Cc1cc(C)cc(COc2cc(C)c(N=CN3CCCCC3)cc2C)c1` [Compound 99]: the “log P” value in data set [1] came out at 2.42.
Turning to `Cc1cc(OCc2ccccc2F)c(C)cc1N=CN1CCCCC1` [Compound 100], the “log P” value in data set [1] was found to be 2.09.
Still for that read-out and setting: the result for `Cc1cc(OCc2c(F)cccc2Cl)c(C)cc1N=CN1CCCCC1` [Compound 101] reads 2.16.
For `COc1cc(Cl)c(COc2cc(C)c(N=CN3CCCCC3)cc2C)cc1OC` [Compound 102], the “log P” value in data set [1] is 2.09.
Regarding `CON=Cc1ccc(COc2cc(C)c(N=CN3CCCCC3)cc2C)cc1` [Compound 103], the “log P” value in data set [1] was determined as 2.21.
`Cc1cc(OCc2ccc(F)cc2)c(C)cc1N=CN1CCCCC1` [Compound 104]: in data set [1], the “log P” value is reported as 2.09.
`Cc1cc(OCc2ccc(Cl)cc2)c(C)cc1N=CN1CCCCC1` [Compound 105]: the “log P” value in data set [1] amounted to 2.26.
For `Cc1cc(OCc2ccccc2Cl)c(C)cc1N=CN1CCCCC1` [Compound 106], the log partition coefficient (log P) in data set [1] is on record as 2.18.
`Cc1cc(OCc2ccc(Cl)c(Cl)c2)c(C)cc1N=CN1CCCCC1` [Compound 107]: in data set [1], the “log P” value is recorded as 2.45.
With `Cc1ccc(COc2cc(C)c(N=CN3CCCCC3)cc2C)cc1C` [Compound 108], the “log P” value in data set [1] stood at 2.36.
Still for that read-out and setting: for `Cc1cc(OCc2ccc(C(F)(F)F)cc2)c(C)cc1N=CN1CCCCC1` [Compound 109] the value was 2.33; for `Cc1cc(OCc2ccc(F)c(F)c2)c(C)cc1N=CN1CCCCC1` [Compound 110], 2.13; for `Cc1cc(OCc2ccccc2OC(F)(F)F)c(C)cc1N=CN1CCCCC1` [Compound 111], 2.33.
On the same count and under the same terms, the result for `Cc1cc(OCc2ccccc2SC(F)(F)F)c(C)cc1N=CN1CCCCC1` [Compound 112] reads 2.48; that for `Cc1cc(OCc2cccc(OC(F)(F)F)c2)c(C)cc1N=CN1CCCCC1` [Compound 113], 2.39; that for `Cc1cc(OCc2cccc(SC(F)(F)F)c2)c(C)cc1N=CN1CCCCC1` [Compound 114], 2.48.
The same measure, in the same setting: the result for `Cc1cc(OCc2ccc(SC(F)(F)F)cc2)c(C)cc1N=CN1CCCCC1` [Compound 115] reads 2.55.
On to `Cc1cc(OCc2ccc(Cl)cc2C(F)(F)F)c(C)cc1N=CN1CCCCC1` [Compound 116], for which the “log P” value in data set [1] is 2.55.
Same read-out and setting: the result for `Cc1ccc(COc2cc(C)c(N=CN3CCCCC3)cc2C)cc1Cl` [Compound 117] reads 2.39; that for `Cc1cc(OCc2cc(Cl)cc(C(F)(F)F)c2)c(C)cc1N=CN1CCCCC1` [Compound 118], 2.61; that for `Cc1cc(OCc2cc(C(F)(F)F)ccc2Cl)c(C)cc1N=CN1CCCCC1` [Compound 119], 2.58.
Regarding `Cc1cc(OCc2cccc(C#N)c2)c(C)cc1N=CN1CCCCC1` [Compound 120], the “log P” value in data set [1] was 1.9.
Turning to `COc1cc(COc2cc(C)c(N=CN3CCCCC3)cc2C)ccc1F` [Compound 121], the “log P” value in data set [1] is on record as 2.06. The log P values of the last two compounds are within 0.2 log units of each other.
On the same count and under the same terms, the result for `Cc1cc(OCc2ccc(OC(F)(F)F)cc2)c(C)cc1N=CN1CCCCC1` [Compound 122] reads 2.42; that for `Cc1cc(OCc2ccccc2C(F)(F)F)c(C)cc1N=CN1CCCCC1` [Compound 123], 2.29; that for `Cc1ccc(COc2cc(C)c(N=CN3CCCCC3)cc2C)cc1` [Compound 124], 2.23.
In the case of `Cc1cc(OCc2ccc(OC(F)F)cc2)c(C)cc1N=CN1CCCCC1` [Compound 125], the “log P” value in data set [1] is reported as 2.16.
With `Cc1cc(OCc2ccc(C(F)(F)F)cc2)c(C)cc1N=CN1CCCCC1` [Compound 126], the “log P” value in data set [1] amounted to 2.58.
Regarding `Cc1cc(OCc2ccccc2OC(F)F)c(C)cc1N=CN1CCCCC1` [Compound 127], the lipophilicity (log P) in data set [1] turned out to be 2.13.
Regarding `Cc1cc(OCc2ccc3nsnc3c2)c(C)cc1N=CN1CCCCC1` [Compound 128], in data set [1], the “log P” value is reported as 1.99.
On to `Cc1cc(OCc2ccc(Cl)c(C(F)(F)F)c2)c(C)cc1N=CN1CCCCC1` [Compound 129], for which the “log P” value in data set [1] worked out at 2.51.
With `CCN(C)/C=N/c1cc(C)c(I)cc1C` [Intermediate (V-1), N′-(4-iodo-2,5-dimethylphenyl)-N-ethyl-N-methylimidoformamide], the chromatographic logP in data set [1] (reversed-phase HPLC column (C18), pH 2.3, read-out: log P (pH 2.3)) came to 1.21.

The term log P denotes the decadic logarithm of the partition coefficient of the neutral form, usually between octanol and water.
